Source: patent US6759557B2, “Melanin production inhibitors and skincare products containing such inhibitors” (Takasago International Corporation, priority 2001, dated 2004)

Legend:
melanoma cells B-16 = assay: Inhibiting effect on melanin synthesis in pigment cells (whiteness of cell residue observed by eye); assay type: cell-based; set-up: key to whiteness of cells rated by eye (melanin synthesis inhibition): −: same colour as the comparative solvent example (black); +: slight colour difference from the comparative solvent example (black grey); ++: clear colour difference from the comparative solvent example (white grey); +++: no colour in the cells (white); settings: for whiteness of cells rated by eye (melanin synthesis inhibition): 4 days, B-16 melanoma cells
Procedure: In plastic culture flasks ([…]), 5×10^4 of melanoma cells B-16 were respectively inoculated and cultivated at 37° C. in DMEM culture media each containing 10% of blood serum (Nippon Suisan Co. Ltd) in the presence of 5% of carbon dioxide. After two days of cultivation, test samples diluted with ethanol were added to the culture media, so as to set their concentrations, respectively, at 1.6, 3.1 and 6.3 ppm for the compounds of Formula (1) where X is —CO— or —CHOH—, and at 0.8, 1.6 and 3.1 ppm for the compounds of Formula (1) where X is —CO—CHOH—. The culture media were further cultivated for 4 days.
When the cultivation was terminated, the culture media were removed from the respective flasks and the remaining cells were rinsed with a phosphate buffer solution (PBS hereinafter). The cells in each flask were treated with a culture medium containing trypsin and EDTA (ethylenediaminetetracetic acid) to yield cell suspensions. The latter were subjected to centrifugation, and the cells were recovered.
The obtained cells were once washed with PBS. The residues were observed by eye, and their whiteness was rated as below.

| melting point [°C] | SMILES | whiteness of cells rated by eye (melanin synthesis inhibition) (melanoma cells B-16; 1.6 ppm in culture medium) | whiteness of cells rated by eye (melanin synthesis inhibition) (melanoma cells B-16; 3.1 ppm in culture medium) | whiteness of cells rated by eye (melanin synthesis inhibition) (melanoma cells B-16; 6.3 ppm in culture medium) | whiteness of cells rated by eye (melanin synthesis inhibition) (melanoma cells B-16; 0.8 ppm in culture medium) | melanin synthesis inhibiting activity (in words) (melanoma cells B-16; concentration not given) |
| --- | --- | --- | --- | --- | --- | --- |
|  | CC1C=CCCCCCCCCCCC(O)CC1 (mixture of isomers) [5(EZ)-4-methylcyclohexadecenol] | + | ++ | +++ |  |  |
|  | CC1C=CCCCCCCCCCCC(=O)CC1 (mixture of isomers) [5(EZ)-4-methylcyclohexadecenone] | + | ++ | +++ |  |  |
|  | OC1CCCC=CCCCCCCCCCC1 (mixture of isomers) [5(EZ)-cyclohexadecenol] | + | ++ | +++ |  |  |
|  | OC1CCCCCCCC=CCCCCCCC1 (mixture of isomers) [9(EZ)-cycloheptadecenol] | + | ++ | +++ |  |  |
|  | O=C1CCCCCCCC=CCCCCCCC1 (mixture of isomers) [9(EZ)-cycloheptadecenone] | + | ++ | +++ |  |  |
|  | OC1CCCCCCCCC=CCCCCCCCCC1 (mixture of isomers) [10(EZ)-cycloeicosenol] | ++ | +++ | +++ |  |  |
|  | O=C1CCCCCCCCC=CCCCCCCCCC1 (mixture of isomers) [10(EZ)-cycloeicosenone] | ++ | +++ | +++ |  |  |
|  | CC1CCCCCCCCCCCCC(=O)C1 (centres unmarked) [1-3-methylcyclopentadecanone] | + | ++ | +++ |  |  |
|  | O=C1CCCCCCCC=CCCCCCC1O (centres unmarked) [2-hydroxy-8-cyclohexadecenone] | − | + |  |  |  |
|  | O=C1CCCCCCCCC=CCCCCCCC1O (centres unmarked) [2-hydroxy-9-cyclooctadecenone] | ++ | +++ |  | + |  |
|  | O=C1CCCCCCCCCC=CCCCCCCCC1O (centres unmarked) [2-hydroxy-10-cycloeicosenone] | +++ | +++ |  | ++ |  |
|  | O=C1CCCCCCCCCCCC=CCCCCCCCCCC1O (centres unmarked) [2-hydroxy-12-cyclotetracosenone] | +++ | +++ |  | ++ |  |
|  | O=C1CCCCCCCCCCCCCCC=CCCCCCCCCCCCCC1O (centres unmarked) [2-hydroxy-15-cyclotriacontenone, reference compound] |  | − |  |  |  |
|  | O=C1CCCCCCCCCCCCCCCCCCC1O (centres unmarked) [2-hydroxycycloeicosanone] | +++ | +++ |  | ++ |  |
|  | O=C1CCCCCCCCCCCCCCC1O (centres unmarked) [2-hydroxycyclohexadecanone] | − | + |  |  |  |
| 31 to 32 | O=C1CCCCCCCCCCCCCCCCC1O (centres unmarked) [2-hydroxycyclooctadecanone] | ++ | +++ |  | + |  |
|  | O=C1CCCCCCCCCCCCCC1O (centres unmarked) [2-hydroxycyclopentadecanone, reference compound] | − | − | +++ |  |  |
| 39 to 40 | O=C1CCCCCCCCCCCCCCCCCCCCCCC1O (centres unmarked) [2-hydroxycyclotetracosanone] | +++ | +++ |  | ++ |  |
|  | CCCCCCCCCCCCC(C)=O [2-tetradecanone, reference compound] |  | − | − |  |  |

| melting point [°C] | SMILES | whiteness of cells rated by eye (melanin synthesis inhibition) (melanoma cells B-16; 1.6 ppm in culture medium) | whiteness of cells rated by eye (melanin synthesis inhibition) (melanoma cells B-16; 3.1 ppm in culture medium) | whiteness of cells rated by eye (melanin synthesis inhibition) (melanoma cells B-16; 6.3 ppm in culture medium) | whiteness of cells rated by eye (melanin synthesis inhibition) (melanoma cells B-16; 0.8 ppm in culture medium) | melanin synthesis inhibiting activity (in words) (melanoma cells B-16; concentration not given) |
| --- | --- | --- | --- | --- | --- | --- |
|  | CCCCCCCCCCCCCC(=O)CC [3-hexadecanone, reference compound] |  | − | − |  |  |
|  | CC1/C=C/CCCCCCCCCCC(=O)CC1 (centres unmarked) [5(E)-4-methylcyclohexadecenone] | + | ++ | +++ |  |  |
|  | O=C1CCC/C=C/CCCCCCCCCC1 [5(E)-cyclohexadecenone] | + | ++ | +++ |  |  |
|  | O=C1CCC/C=C\CCCCCCCCCC1 [5(Z)-cyclohexadecenone] | + | ++ | +++ |  |  |
|  | CCCCCCCC(=O)CCCCCCC [8-pentadecanone, reference compound] |  | − | − |  |  |
|  | CCCCCCCCC(=O)CCCCCCCC [9-heptadecanone, reference compound] |  | − | − |  |  |
|  | OC[C@H]1O[C@@H](Oc2ccc(O)cc2)[C@H](O)[C@@H](O)[C@@H]1O [arbutin, reference compound] | − | + | ++ |  | much weaker melanin-synthesis inhibiting activities |
|  | OC1CCCCCCCCCCC1 [cyclododecanol, reference compound] |  | − | + |  |  |
|  | O=C1CCCCCCCCCCC1 [cyclododecanone, reference compound] |  | − | + |  |  |
|  | O=C1CCCCCCCCCCCCCCCCCCC1 [cycloeicosanone] | + | ++ | +++ |  |  |
|  | OC1CCCCCCCCCCCCCCCC1 [cycloheptadecanol] | + | ++ | +++ |  |  |
|  | O=C1CCCCCCCCCCCCCCCC1 [cycloheptadecanone] | + | ++ | +++ |  |  |
|  | OC1CCCCCCCCCCCCCCC1 [cyclohexadecanol] | + | ++ | +++ |  |  |
|  | O=C1CCCCCCCCCCCCCCC1 [cyclohexadecanone] | + | ++ | +++ |  |  |
|  | OC1CCCCCCCCCCCCCC1 [cyclopentadecanol] | + | ++ | +++ |  |  |
|  | O=C1CCCCCCCCCCCCCC1 [cyclopentadecanone] | + | ++ | +++ |  |  |
|  | CC(=O)CCC1=C(C)CCCC1(C)C [dihydro-β-ionone, reference compound] | − | + | ++ |  |  |
|  | CC(O)CCC1C(C)CCCC1(C)C (centres unmarked) [tetrahydroionol, reference compound] | − | + | ++ |  |  |
